Several values for one entry are separate records, joined by “and”; a condition that tells them apart may be missing. Identical values can stand only once. Toxic doses and inconclusive results are not listed. Rule for the calls: active = survival T/C of 150% or more; inactive = T/C below 125% in these data.
System: P388 leukemia ip, CD2F1 mice, survival T/C
Test: NCI In Vivo Anticancer Drug Screen. Data for tumor model P388 Leukemia (intraperitoneal) in CD2F1 (CDF1) mice
Conditions: endpoint: median survival time, higher = longer survival
Procedure, shortened: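 Mice carrying the transplanted tumor received test compound or vehicle. Survival was recorded in each group, and the value is the treated-group measurement divided by that of the vehicle-treated control group.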

[1] = dose: 50.0 mg/kg/injection, schedule: Q01DX005 (ip), vehicle: Klucel (hydroxypropylcellulose) (HPC)
[2] = dose: 100.0 mg/kg/injection, schedule: Q01DX005 (ip), vehicle: Klucel (hydroxypropylcellulose) (HPC)
[3] = dose: 200.0 mg/kg/injection, schedule: Q01DX005 (ip), vehicle: Klucel (hydroxypropylcellulose) (HPC)
[4] = dose: 100.0 mg/kg/injection, schedule: Q01DX009 (ip), vehicle: saline with Tween-80
[5] = dose: 200.0 mg/kg/injection, schedule: Q01DX009 (ip), vehicle: saline with Tween-80
[6] = dose: 50.0 mg/kg/injection, schedule: Q01DX009 (ip), vehicle: saline
[7] = dose: 100.0 mg/kg/injection, schedule: Q01DX009 (ip), vehicle: saline
[8] = dose: 200.0 mg/kg/injection, schedule: Q01DX009 (ip), vehicle: saline
[9] = dose: 50.0 mg/kg/injection, schedule: Q01DX009 (ip), vehicle: Klucel (hydroxypropylcellulose) (HPC)
[10] = dose: 100.0 mg/kg/injection, schedule: Q01DX009 (ip), vehicle: Klucel (hydroxypropylcellulose) (HPC)
[11] = dose: 200.0 mg/kg/injection, schedule: Q01DX009 (ip), vehicle: Klucel (hydroxypropylcellulose) (HPC)
[12] = dose: 60.0 mg/kg/injection, schedule: Q01DX005 (ip), vehicle: saline with Tween-80
[13] = dose: 120.0 mg/kg/injection, schedule: Q01DX005 (ip), vehicle: saline with Tween-80
[14] = dose: 240.0 mg/kg/injection, schedule: Q01DX005 (ip), vehicle: saline with Tween-80
[15] = dose: 50.0 mg/kg/injection, schedule: Q01DX009 (ip), vehicle: saline with Tween-80
[16] = dose: 100.0 mg/kg/injection, schedule: Q04DX003 (ip), vehicle: saline with Tween-80
[17] = dose: 60.0 mg/kg/injection, schedule: Q01DX005 (ip), vehicle: Klucel (hydroxypropylcellulose) (HPC)
[18] = dose: 120.0 mg/kg/injection, schedule: Q01DX005 (ip), vehicle: Klucel (hydroxypropylcellulose) (HPC)
[19] = dose: 240.0 mg/kg/injection, schedule: Q01DX005 (ip), vehicle: Klucel (hydroxypropylcellulose) (HPC)
[20] = dose: 50.0 mg/kg/injection, schedule: Q01DX005 (ip), vehicle: saline with Tween-80
[21] = dose: 12.5 mg/kg/injection, schedule: Q01DX009 (ip), vehicle: saline with Tween-80
[22] = dose: 25.0 mg/kg/injection, schedule: Q01DX009 (ip), vehicle: saline with Tween-80

Measured: T/C

COc1ccc(/C=N/N2C(=O)c3ccccc3C2=O)c(OC)c1
inactive: [1] 99 % of control | [2] 98 % of control | [3] 96 % of control

CCOC(=O)CCC1(C(=O)OC)C(=O)CCCCCCC1C(=O)OC (configuration not stated)
inactive: [4] 95 % of control | [5] 100 % of control | dose: 400.0 mg/kg/injection, schedule: Q01DX009 (ip), vehicle: saline with Tween-80 100 % of control

CCC1C(=O)CC(c2ccc(OC)cc2)OC1c1ccc(OC)cc1 (configuration not stated)
inactive: [6] 88 % of control | [7] 96 % of control | [8] 99 % of control

CN(C)C(=O)Nc1cccc2c(NC(=O)N(C)C)cccc12
inactive: [9] 100 % of control and 103 % of control | [10] 100 % of control (2×) and 93 % of control | [11] 99 % of control and 87 % of control | dose: 400.0 mg/kg/injection, schedule: Q01DX009 (ip), vehicle: Klucel (hydroxypropylcellulose) (HPC) 91 % of control

COc1ccc(C(c2cc3c(cc2O)OCO3)N2CCOCC2)c(OC)c1OC (configuration not stated)
inactive: [12] 119 % of control | [13] 109 % of control | [14] 115 % of control

CNC(=O)Oc1cccc(N=CN(C)C)c1
inactive: dose: 0.93 mg/kg/injection, schedule: Q01DX005 (ip), vehicle: saline 97 % of control | dose: 1.87 mg/kg/injection, schedule: Q01DX005 (ip), vehicle: saline 101 % of control | dose: 3.75 mg/kg/injection, schedule: Q01DX005 (ip), vehicle: saline 95 % of control

N#C/C(=C\c1c(Cl)cccc1Cl)c1nc2ccccc2[nH]1
inactive: [9] 115 % of control | [10] 103 % of control | [11] 112 % of control

CC(C)C(=NC(C)(C)C)Nc1ccccc1Cl
inactive: [15] 100 % of control | [4] 92 % of control | [5] 95 % of control

N#CC(c1ccccc1)(N1CCOCC1)N1CCOCC1
inactive: dose: 6.25 mg/kg/injection, schedule: Q04DX003 (ip), vehicle: saline 101 % of control and 97 % of control | dose: 12.5 mg/kg/injection, schedule: Q04DX003 (ip), vehicle: saline 100 % of control and 101 % of control | dose: 25.0 mg/kg/injection, schedule: Q04DX003 (ip), vehicle: saline 100 % of control and 101 % of control (2×) | [16] 100 % of control

CCOc1c(N=Nc2ccc([N+](=O)[O-])cc2)c(C)nn1C(N)=S
inactive: [17] 93 % of control | [18] 95 % of control | [19] 98 % of control

CCOC(=O)c1n[nH]nc1Nc1cncc(Nc2n[nH]nc2C(=O)OCC)n1
inactive: [17] 102 % of control | [18] 97 % of control | [19] 97 % of control

Nc1[nH]c(=O)ncc1-c1ccc([N+](=O)[O-])cc1
inactive: dose: 12.5 mg/kg/injection, schedule: Q01DX005 (ip), vehicle: saline with Tween-80 95 % of control | dose: 25.0 mg/kg/injection, schedule: Q01DX005 (ip), vehicle: saline with Tween-80 97 % of control | [20] 101 % of control and 105 % of control

O=c1n2ccccc2nc2nc3ccccc3n12
inactive: [12] 86 % of control | [13] 86 % of control

O=c1nc2n(CC(O)CN3CCCCC3)c3cc(Cl)ccc3nc-2c(=O)[nH]1 (configuration not stated)
inactive: dose: 6.25 mg/kg/injection, schedule: Q01DX005 (ip), vehicle: saline 103 % of control | dose: 12.5 mg/kg/injection, schedule: Q01DX005 (ip), vehicle: saline 106 % of control

CC(=O)O.CC(=O)O.CC[OH+]CC[OH+]CC[OH+]C1CCCC2CCC[N-]C21.[Zn] (configuration not stated)
inactive: dose: 6.25 mg/kg/injection, schedule: Q01DX005 (ip), vehicle: Klucel (hydroxypropylcellulose) (HPC) 111 % of control | dose: 12.5 mg/kg/injection, schedule: Q01DX005 (ip), vehicle: Klucel (hydroxypropylcellulose) (HPC) 105 % of control and 113 % of control (2×) | dose: 25.0 mg/kg/injection, schedule: Q01DX005 (ip), vehicle: Klucel (hydroxypropylcellulose) (HPC) 109 % of control and 113 % of control and 116 % of control

COc1cc2c(cc1OC)CC(=O)OC2
inactive: [1] 105 % of control | [2] 102 % of control | [3] 103 % of control

O=C(Nc1c(Cl)cccc1Cl)Nc1c(Cl)cccc1Cl
inactive: [12] 92 % of control | [13] 92 % of control | [14] 94 % of control

O=C(O)C1=C(C(=O)O)CCC1
inactive: dose: 25.0 mg/kg/injection, schedule: Q01DX009 (ip), vehicle: distilled water + Tween-80 100 % of control | dose: 50.0 mg/kg/injection, schedule: Q01DX009 (ip), vehicle: distilled water + Tween-80 91 % of control | dose: 100.0 mg/kg/injection, schedule: Q01DX009 (ip), vehicle: distilled water + Tween-80 89 % of control

c1nc2c(o1)CCCC2
inactive: [12] 104 % of control | [13] 101 % of control | [14] 95 % of control

O=C1NCCCC1(c1ccccc1)c1ccccc1
inactive: [6] 98 % of control | [7] 102 % of control | [8] 97 % of control

O=C1C=CC(=O)N1c1cccc2c1CCCC2
inactive: dose: 6.25 mg/kg/injection, schedule: Q01DX009 (ip), vehicle: saline with Tween-80 105 % of control | [21] 114 % of control

O=C(O)CCC(=O)OCCNCCOC(=O)CCC(=O)O
inactive: [6] 92 % of control | [7] 96 % of control | [8] 99 % of control

O=C(O)/C=C/c1c2ccc(=O)c(O)c-2oc2c(O)c(O)ccc12
inactive: [12] 93 % of control | [13] 93 % of control | [14] 92 % of control

O=C1CSC(=Nc2ccccc2)N1c1ncccn1
inactive: [9] 103 % of control | [10] 102 % of control | [11] 102 % of control

COc1cc(NC(=O)CCl)ccc(=O)c1
inactive: [21] 95 % of control | [22] 113 % of control

CNC(=O)n1nc(C)cc1C
inactive: dose: 50.0 mg/kg/injection, schedule: Q01DX005 (ip), vehicle: distilled water + alcohol 108 % of control | dose: 100.0 mg/kg/injection, schedule: Q01DX005 (ip), vehicle: distilled water + alcohol 102 % of control | dose: 200.0 mg/kg/injection, schedule: Q01DX005 (ip), vehicle: distilled water + alcohol 108 % of control

C=C(C)c1c2c(SC)ccc(SC)c2cc2c(SC)ccc(SC)c12
inactive: dose: 100.0 mg/kg/injection, schedule: Q01DX001 (ip), vehicle: saline with Tween-80 96 % of control | dose: 200.0 mg/kg/injection, schedule: Q01DX001 (ip), vehicle: saline with Tween-80 98 % of control | dose: 400.0 mg/kg/injection, schedule: Q01DX001 (ip), vehicle: saline with Tween-80 95 % of control

CCc1c(C#N)c(S)[nH]c(=S)c1C#N
inactive: dose: 12.5 mg/kg/injection, schedule: Q01DX009 (ip), vehicle: saline 90 % of control | dose: 25.0 mg/kg/injection, schedule: Q01DX009 (ip), vehicle: saline 100 % of control | [6] 98 % of control and 102 % of control

CC(C)(C)C=O
inactive: dose: 100.0 mg/kg/injection, schedule: Q04DX003 (ip), vehicle: saline 100 % of control | dose: 200.0 mg/kg/injection, schedule: Q04DX003 (ip), vehicle: saline 100 % of control | dose: 400.0 mg/kg/injection, schedule: Q04DX003 (ip), vehicle: saline 100 % of control

CCOC(=O)c1cc2c(ccn2OC)[nH]1
inactive: [16] 102 % of control

COc1ccccc1OCC(O)CNc1ccc(Cl)cc1C(=O)c1ccccc1Cl (configuration not stated)
inactive: [20] 90 % of control | dose: 100.0 mg/kg/injection, schedule: Q01DX005 (ip), vehicle: saline with Tween-80 90 % of control | dose: 200.0 mg/kg/injection, schedule: Q01DX005 (ip), vehicle: saline with Tween-80 88 % of control

COc1ccc(/C(C#N)=C/c2ccccc2)cc1
inactive: dose: 6.25 mg/kg/injection, schedule: Q01DX009 (ip), vehicle: suspension in saline 99 % of control and 103 % of control and 107 % of control | dose: 12.5 mg/kg/injection, schedule: Q01DX009 (ip), vehicle: suspension in saline 100 % of control and 108 % of control and 114 % of control | [22] 86 % of control | dose: 25.0 mg/kg/injection, schedule: Q01DX009 (ip), vehicle: suspension in saline 100 % of control and 92 % of control and 98 % of control | [15] 91 % of control | dose: 50.0 mg/kg/injection, schedule: Q01DX009 (ip), vehicle: suspension in saline 107 % of control and 124 % of control | [4] 91 % of control | [5] 101 % of control

Source: PubChem BioAssay AID330 (DTP/NCI, 2004)
